Data set [1] can be described thus: Embryofetal development study in the rabbit.
Experimental: Embryofetal development studies were conducted in the rat and rabbit. Elagolix was administered by oral gavage to pregnant rats (25 animals/dose) at doses of 0, 300, 600 and 1200 mg/kg/day and to rabbits (20 animals/dose) at doses of 0, 100, 150, and 200 mg/kg/day, during the period of organogenesis (gestation day 6-17 in the rat and gestation day 7-20 in the rabbit).
The target in data set [2] is T1, rat gonadotropin-releasing hormone (GnRH) receptor (Rattus norvegicus, UniProt P30969).
T1 sequence (P30969 1-327): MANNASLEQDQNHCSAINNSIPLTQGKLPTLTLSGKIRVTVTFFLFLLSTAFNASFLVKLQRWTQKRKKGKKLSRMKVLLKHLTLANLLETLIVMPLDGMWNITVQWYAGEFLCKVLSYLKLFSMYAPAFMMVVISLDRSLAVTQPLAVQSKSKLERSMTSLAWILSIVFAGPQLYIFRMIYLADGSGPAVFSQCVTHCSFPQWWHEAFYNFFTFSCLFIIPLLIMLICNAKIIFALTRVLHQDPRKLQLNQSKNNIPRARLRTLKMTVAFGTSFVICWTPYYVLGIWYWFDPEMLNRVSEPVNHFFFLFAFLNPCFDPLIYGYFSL
Briefly: Binding to rat versus human GnRH receptor. Particulars: rat vs human GnRH receptor.

The nature of data set [3]: Phase 1 open-label study: coadministration of combined oral contraceptive (EE+LNG) with elagolix sodium, pharmacokinetics, safety and tolerability. Particulars: healthy premenopausal female subjects. Format: in vivo, human. The procedure: Objective: To evaluate the effect of elagolix on the pharmacokinetics, safety, and tolerability of a single dose of a combined oral contraceptive (COC) containing EE and LNG in healthy premenopausal female subjects. […] [table] […] Diagnosis and Main Criteria for Inclusion: Subjects were premenopausal females, and age was between 18 and 49 years, inclusive. Test Product, Dose/Strength/Concentration, and Mode of Administration: […] EE/LNG 0.02 mg/0.1 mg tablet; All study drugs were administered orally. Duration of Treatment: […] EE/LNG: 0.02 mg/0.1 mg on two separate occasions. Criteria for Evaluation: Pharmacokinetic: Cmax, Tmax, t1/2 and AUC. Safety: Vital signs, physical examinations, laboratory tests, and adverse events. […] The tabulation of the number of subjects with treatment-emergent adverse events also was provided with further breakdowns by severity rating and relationship to study drug.

Setting [4] is: pregnant rabbits, 150 mg/kg/day.

The text below walks through data of patent US20220257597A1, “Methods of Administering Elagolix” (AbbVie Inc., priority 2021, published 2022).

SMILES strings stand for the structures. Entries after “also recorded” stand apart in the source; their conditions may differ.

With `COc1cccc(-c2c(C)n(Cc3c(F)cccc3C(F)(F)F)c(=O)n(C[C@H](NCCCC(=O)O)c3ccccc3)c2=O)c1F` [elagolix, 4-((R)-2-[5-(2-fluoro-3-methoxy-phenyl)-3-(2-fluoro-6-trifluoromethyl-benzyl)-4-methyl-2,6-dioxo-3,6-dihydro-2H-pyrimidin-1-yl]-1-phenyl-ethylamino)-butyric acid], the “highest, maternally toxic dose with spontaneous abortions and total litter loss, as multiple of the MRHD based on AUC” value in data set [1] (pregnant rabbits) worked out at 7 times the MRHD. Further, in data set [1] (setting [4]), the “findings at lower non-maternally toxic dose” value is “A single total litter loss” and the “non-maternally toxic dose with total litter loss, as multiple of the MRHD” value stood at 4 times the MRHD. Moreover, the “findings at the highest, maternally toxic dose” value in data set [1] (pregnant rabbits, oral gavage, gestation day 7-20) is “three spontaneous abortions and a single total litter loss”. Moreover, the “fetal malformations / structural abnormalities” value in data set [1] (rabbit, any dose level tested) is recorded as “no structural abnormalities; also recorded: No fetal malformations”. Further, the “binding to the rat GnRH receptor, fold less than to the human GnRH receptor” value in data set [2] is about 1000 fold. The “tolerability of co-administration of elagolix and EE/LNG” value in data set [3] is “generally well tolerated”.
